Consider 18 compounds from patent publication US11059832B2, “HPK1 inhibitors and methods of using same” (University Health Network, priority 2015, dated 2021).

Common to all, as to format: biochemical
Test [1] concerns the target T1, human HPK1 (MAP4K1) (Homo sapiens, UniProt Q92918).
T1 construct: human HPK1 (aa 1-346); purchased Invitrogen PV6355
T1 sequence (Q92918 1-346): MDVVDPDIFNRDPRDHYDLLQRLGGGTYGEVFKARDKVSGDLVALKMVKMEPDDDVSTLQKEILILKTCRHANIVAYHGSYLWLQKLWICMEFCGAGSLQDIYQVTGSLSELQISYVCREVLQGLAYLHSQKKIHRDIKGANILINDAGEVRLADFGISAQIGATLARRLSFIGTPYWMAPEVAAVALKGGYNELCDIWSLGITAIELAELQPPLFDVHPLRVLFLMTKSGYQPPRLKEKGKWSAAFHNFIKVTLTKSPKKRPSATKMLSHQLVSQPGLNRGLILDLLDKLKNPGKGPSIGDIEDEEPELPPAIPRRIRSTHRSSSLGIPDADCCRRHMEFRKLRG
The test is described as follows: HPK1 inhibition assay (indirect ELISA). The following applies: GST-HPK1 0.6 nM, 12 μM ATP; read-out: IC50 Range HPK1. In a few lines:
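GST-tagged human HPK1 (aa 1-346, 0.6 nM) phosphorylated MBP-coated wells with 12 μM ATP in MOPS pH 7.2/Mg2+ buffer for 30 min after 15-min compound preincubation; phospho-Thr detected by antibody ELISA with TMB, 450 nm. Tested at 10 μM or 10-point titration (typically 50-0.1 μM); IC50 by 4-parameter logistic fit.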
(In general: ELISA stands for enzyme-linked immunosorbent assay.)

Test [2] deals with T2, LCK (Homo sapiens, UniProt P06239).
T2 construct: purchased Invitrogen P3043
Kind of test: LCK inhibition, FRET based Z'-LYTE Kinase Assay. The note with it: 25 nM LCK, 180 μM ATP; read-out: IC50 Range Lck. As to the method:
(§1) FLT3 and LCK compound inhibition were determined using FRET based Z′-LYTE Kinase Assay Kit with Tyrosine 2 peptide as the substrate (Invitrogen cat #PV3191). […] The % inhibition values were determined according to the manufacturer's directions and IC50 values were obtained using a non-linear 4 point logistic curve fit (XLfit4, IDBS).

Test [3] has as its target T3, FLT3 (Homo sapiens, UniProt P36888).
T3 construct: purchased Invitrogen PV3182
T3 sequence (P36888 27-993): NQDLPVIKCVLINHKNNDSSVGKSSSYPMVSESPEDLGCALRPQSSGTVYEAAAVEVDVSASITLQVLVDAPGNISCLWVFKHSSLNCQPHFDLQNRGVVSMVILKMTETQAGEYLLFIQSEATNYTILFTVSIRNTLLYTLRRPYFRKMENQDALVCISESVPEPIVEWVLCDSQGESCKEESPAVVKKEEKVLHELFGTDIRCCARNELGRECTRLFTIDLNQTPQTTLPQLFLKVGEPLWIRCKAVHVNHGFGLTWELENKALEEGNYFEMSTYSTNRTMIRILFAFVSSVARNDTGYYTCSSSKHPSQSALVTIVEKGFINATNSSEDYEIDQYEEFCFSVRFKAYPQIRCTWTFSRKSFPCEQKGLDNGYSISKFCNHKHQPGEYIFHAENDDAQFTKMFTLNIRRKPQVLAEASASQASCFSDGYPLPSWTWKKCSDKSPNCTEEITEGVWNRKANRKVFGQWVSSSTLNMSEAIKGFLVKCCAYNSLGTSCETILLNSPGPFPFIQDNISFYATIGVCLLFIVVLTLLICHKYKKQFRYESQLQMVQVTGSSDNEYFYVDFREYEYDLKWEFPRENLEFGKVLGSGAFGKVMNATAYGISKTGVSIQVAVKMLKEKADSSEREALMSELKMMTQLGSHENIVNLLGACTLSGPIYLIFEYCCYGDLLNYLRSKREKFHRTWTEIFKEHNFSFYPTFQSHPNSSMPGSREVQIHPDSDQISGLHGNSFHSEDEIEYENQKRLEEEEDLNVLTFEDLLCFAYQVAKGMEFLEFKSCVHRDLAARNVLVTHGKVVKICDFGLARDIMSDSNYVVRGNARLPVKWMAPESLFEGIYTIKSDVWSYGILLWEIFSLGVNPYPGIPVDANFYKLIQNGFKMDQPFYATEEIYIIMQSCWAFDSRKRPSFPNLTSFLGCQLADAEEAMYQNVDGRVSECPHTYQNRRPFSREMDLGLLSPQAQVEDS
The test is described as follows: FLT3 inhibition, FRET based Z'-LYTE Kinase Assay. The note with it: 1 nM FLT3, 940 μM ATP; read-out: IC50 Range Flt3. As to the method: as §1

T2 sequence (P06239 whole entry, species assumed): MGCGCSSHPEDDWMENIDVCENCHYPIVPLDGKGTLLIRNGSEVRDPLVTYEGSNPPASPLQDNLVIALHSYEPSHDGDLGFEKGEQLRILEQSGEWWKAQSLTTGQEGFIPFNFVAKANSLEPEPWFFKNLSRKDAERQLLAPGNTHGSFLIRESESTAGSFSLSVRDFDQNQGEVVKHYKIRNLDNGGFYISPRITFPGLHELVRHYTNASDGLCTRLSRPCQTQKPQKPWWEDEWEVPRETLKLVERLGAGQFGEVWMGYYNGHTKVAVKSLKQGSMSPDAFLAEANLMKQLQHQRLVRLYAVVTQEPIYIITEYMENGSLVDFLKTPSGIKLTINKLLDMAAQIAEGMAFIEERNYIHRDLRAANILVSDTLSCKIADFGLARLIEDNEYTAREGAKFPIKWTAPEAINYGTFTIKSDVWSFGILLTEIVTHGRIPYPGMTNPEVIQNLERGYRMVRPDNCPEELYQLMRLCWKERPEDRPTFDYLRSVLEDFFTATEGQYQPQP

Consider `CN1CCN(c2ccc3nc(-c4c(NCC5CCOCC5)c5sccc5[nH]c4=O)[nH]c3c2)CC1` [Example A38, 6-(6-(4-methylpiperazin-1-yl)-1H-benzo[d]imidazol-2-yl)-7-(((tetrahydro-2H-pyran-4-yl)methyl)amino)thieno[3,2-b]pyridin-5(4H)-one], for which the IC50 in test [1], in test [2] and in test [3] was no more than 50 nM throughout.
On to `CN1CCN(c2ccc3nc(-c4c(NC5CCNCC5)c5sccc5[nH]c4=O)[nH]c3c2)CC1` [Example A39, 6-(6-(4-methylpiperazin-1-yl)-1H-benzo[d]imidazol-2-yl)-7-(piperidin-4-ylamino)thieno[3,2-b]pyridin-5(4H)-one], for which the IC50 in test [1], in test [2] and in test [3] was no more than 50 nM in each case.
As for `CN1CCN(c2ccc3nc(-c4c(N[C@H]5CC[C@@H](O)CC5)c5sccc5[nH]c4=O)[nH]c3c2)CC1` [Example A40, 7-(((1S,4S)-4-hydroxycyclohexyl)amino)-6-(6-(4-methylpiperazin-1-yl)-1H-benzo[d]imidazol-2-yl)thieno-[3,2-b]pyridin-5(4H)-one], the IC50 in test [1], in test [2] and in test [3] was no more than 50 nM throughout.
Regarding `CN1CCN(c2ccc3nc(-c4c(N[C@H]5CCCC[C@@H]5O)c5sccc5[nH]c4=O)[nH]c3c2)CC1` [Example A41, 7-(((1S,2S)-2-hydroxycyclohexyl)amino)-6-(6-(4-methylpiperazin-1-yl)-1H-benzo[d]imidazol-2-yl)thieno[3,2-b]pyridin-5(4H)-one], the IC50 in test [1], in test [2] and in test [3] was no more than 50 nM each time.
For `CN1CCN(c2ccc3nc(-c4c(N[C@H]5CCC[C@@H]5O)c5sccc5[nH]c4=O)[nH]c3c2)CC1` [Example A42, 7-(((1S,2S)-2-hydroxycyclopentyl)amino)-6-(6-(4-methylpiperazin-1-yl)-1H-benzo[d]imidazol-2-yl)thieno[3,2-b]pyridin-5(4H)-one], the IC50 in test [1], in test [2] and in test [3] was no more than 50 nM in each case.
On to `CN1CCN(c2ccc3nc(-c4c(N[C@H]5CCCC[C@H]5O)c5sccc5[nH]c4=O)[nH]c3c2)CC1` [Example A44, 7-(((1S,2R)-2-hydroxycyclohexyl)amino)-6-(6-(4-methylpiperazin-1-yl)-1H-benzo[d]imidazol-2-yl)thieno[3,2-b]pyridin-5(4H)-one], for which the IC50 in test [1], in test [2] and in test [3] was no more than 50 nM throughout.
In the case of `CN1CCC(Nc2c(-c3nc4ccc(N5CCOCC5)cc4[nH]3)c(=O)[nH]c3ccsc23)CC1` [Example A45, 7((1-methylpiperidin-4-yl)amino)-6-(6-morpholino-1H-benzo[d]imidazol-2-yl)thieno[3,2-b]pyridin-5(4H)-one], the IC50 in test [1], in test [2] and in test [3] was no more than 50 nM in each case.
Consider `CN1CCN(c2ccc3nc(-c4c(N[C@@H]5CCCC[C@@H]5O)c5sccc5[nH]c4=O)[nH]c3c2)CC1` [Example A46, 7-(((1R,2S)-2-hydroxycyclohexyl)amino)-6-(6-(4-methylpiperazin-1-yl)-1H-benzo[d]imidazol-2-yl)thieno[3,2-b]pyridin-5(4H)-one], for which the figures for the IC50 in test [1], in test [2] and in test [3] were no more than 50 nM, 50 to 500 nM and no more than 50 nM, respectively.
Regarding `C[C@@H]1CN(c2ccc3nc(-c4c(NC5CCOCC5)c5sccc5[nH]c4=O)[nH]c3c2)C[C@H](C)N1C` [Example A48, 7-((tetrahydro-2H-pyran-4-yl)amino)-6-(6-(3r,5s)-rel-3,4,5-trimethylpiperazin-1-yl)-1H-benzo[d]imidazol-2-yl)thieno[3,2-b]pyridin-5(4H)-one], the IC50 in test [1], in test [2] and in test [3] was no more than 50 nM in each case.
On to `CN1CCN(c2ccc3nc(-c4c(NCc5cccnc5)c5sccc5[nH]c4=O)[nH]c3c2)CC1` [Example A52, 6-(6-(4-methylpiperazin-1-yl)-1H-benzo[d]imidazol-2-yl)-7-((pyridin-3-ylmethyl)amino)thieno[3,2-b]pyridin-5(4H)-one], for which the IC50 in test [1], in test [2] and in test [3] was no more than 50 nM throughout.
On to `CN1CCN(c2ccc3nc(-c4c(NCc5ccccn5)c5sccc5[nH]c4=O)[nH]c3c2)CC1` [Example A53, 6-(6-(4-methylpiperazin-1-yl)-1H-benzo[d]imidazol-2-yl)-7-((pyridin-2-ylmethyl)amino)-thieno[3,2-b]pyridin-5(4H)-one], for which the IC50 in test [1], in test [2] and in test [3] was no more than 50 nM each time.
As for `CN1CCN(c2ccc3nc(-c4c(N[C@H]5CCNC[C@@H]5F)c5ccsc5[nH]c4=O)[nH]c3c2)CC1` [Example A54, 4-(((3S,4S)-3-fluoropiperidin-4-yl)amino)-5-(6-(4-methylpiperazin-1-yl)-1H-benzo[d]imidazol-2-yl)thieno[2,3-b]pyridin-6(7H)-one], the figures for the IC50 in test [1], in test [2] and in test [3] were no more than 50 nM, 50 to 500 nM and no more than 50 nM, respectively.
As for `Cc1cc2[nH]c(-c3c(N)c4ccsc4[nH]c3=O)nc2cc1N1CCN(C)CC1` [Example A61, 4-amino-5-(6-methyl-5-(4-methylpiperazin-1-yl)-1H-benzo[d]imidazol-2-yl)thieno[2,3-b]pyridin-6(7H)-one], the IC50 (as a rule, the concentration at which inhibition is half-maximal) is no more than 50 nM in test [1], 50 to 500 nM in test [2] and no more than 50 nM in test [3].
As to `Nc1c(-c2nc3ccc(N4CCNCC4)cc3[nH]2)c(=O)[nH]c2sccc12` [Example A64, 4-amino-5-(6-(piperazin-1-yl)-1H-benzo[d]imidazol-2-yl)thieno[2,3-b]pyridin-6(7H)-one], the IC50 in test [1] was no more than 50 nM; in test [2], 50 to 500 nM; in test [3], no more than 50 nM.
`Nc1c(-c2nc3ccc(N4CCN(C5COC5)CC4)cc3[nH]2)c(=O)[nH]c2sccc12` [Example A65, 4-amino-5-(6-(4-(oxetan-3-yl)piperazin-1-yl)-1H-benzo[d]imidazol-2-yl)thieno[2,3-b]pyridin-6(7H)-one]: the figures for the IC50 in test [1], in test [2] and in test [3] were no more than 50 nM, 50 to 500 nM and no more than 50 nM, respectively.
As to `CN1CCN(c2ccc3nc(-c4c(N[C@H]5CCC[C@@H]5O)c5ccsc5[nH]c4=O)[nH]c3c2)CC1` [Example A66, 4-(((1S,2S)-2-hydroxycyclopentyl)amino)-5-(6-(4-methylpiperazin-1-yl)-1H-benzo[d]imidazol-2-yl)thieno[2,3-b]pyridin-6(7H)-one], the IC50 in test [1], in test [2] and in test [3] was no more than 50 nM in each case.
As for `CN1CCN(c2ccc3nc(-c4c(N[C@@H]5CCC[C@H]5O)c5ccsc5[nH]c4=O)[nH]c3c2)CC1` [Example A67, 4-(((1R,2R)-2-hydroxycyclopentyl)amino)-5-(6-(4-methylpiperazin-1-yl)-1H-benzo[d]imidazol-2-yl)thieno[2,3-b]pyridin-6(7H)-one], the 50% inhibitory concentration (IC50) in test [1] was no more than 50 nM; in test [2] it was 50 to 500 nM; in test [3], no more than 50 nM.
For `CN1CCN(c2cc3[nH]c(-c4c(N)c5sccc5[nH]c4=O)nc3cc2F)CC1` [Example A68, 7-amino-6-(5-fluoro-6-(4-methylpiperazin-1-yl)-1H-benzo[d]imidazol-2-yl)thieno[3,2-b]pyridin-5(4H)-one], the IC50 in test [1], in test [2] and in test [3] was no more than 50 nM in each case.
